Laboratory results taken from ChEMBL document CHEMBL3351865, “N-aryl-2-aminobenzimidazoles: novel, efficacious, antimalarial lead compounds” (J Med Chem, 2014).
In brackets after ≈: the same amount, converted by molar mass. One block for each molecule: values may come before it.

Columns and labels:
[1] = system: Plasmodium falciparum; assay: microbe, parasite or virus in culture; settings: NF54
Description: Antiplasmodial activity against Plasmodium falciparum NF54 by SYBR-green based assay

[2] = system: Plasmodium falciparum; assay: microbe, parasite or virus in culture; settings: K1
Description: Antiplasmodial activity against Plasmodium falciparum K1 by SYBR-green based assay

[3] = in vitro; settings: human, THP-1 cells
Description: Selectivity index, ratio of IC50 for human THP1 cells to IC50 for Plasmodium falciparum

[4] = in vitro; settings: human, hepatocytes
Description: Clearance in human hepatocytes assessed per million cells

[5] = physchem; settings: buffer
Description: Aqueous solubility of the compound

[6] = in vitro; settings: human, plasma
Description: Unbound fraction in human plasma

[7] = system: Plasmodium falciparum; assay: microbe, parasite or virus in culture; settings: SB1-A6
Description: Antiplasmodial activity against Plasmodium falciparum SB1-A6 harboring mutations conferring drug-resistance by SYBR-green based assay

[8] = system: Plasmodium falciparum; assay: microbe, parasite or virus in culture; settings: W2
Description: Antiplasmodial activity against Plasmodium falciparum W2 harboring mutations conferring drug-resistance by SYBR-green based assay

[9] = in vitro; settings: human, microsomes
Description: Clearance in human microsomes

[10] = physchem; settings: buffer, pH 7.4
Description: Lipophilicity, logD of the compound at pH 7.4

[11] = system: Plasmodium falciparum; assay: microbe, parasite or virus in culture; settings: 7G8
Description: Antiplasmodial activity against Plasmodium falciparum 7G8 harboring mutations conferring drug-resistance by SYBR-green based assay

[12] = system: Plasmodium falciparum; assay: microbe, parasite or virus in culture; settings: Dd2
Description: Antiplasmodial activity against Plasmodium falciparum Dd2 harboring mutations conferring drug-resistance by SYBR-green based assay

[13] = molecular target: Voltage-gated inwardly rectifying potassium channel KCNH2 (Homo sapiens, UniProt Q12809)
[14] = system: Plasmodium berghei; settings: dose 50 mg/kg
Description: Antiplasmodial activity against Plasmodium berghei infected in mouse assessed as increase in mean survival days at 50 mg/kg treated with four once daily doses

[15] = in vivo; settings: mouse, 30 mg/kg
[16] = Half life in Plasmodium berghei infected mouse at 100 mg/kg treated with four once daily doses; format: ADME, organism-based; parameters: dose 100 mg/kg; settings: in vivo
[17] = in vivo; settings: mouse, plasma, 50 mg/kg
Description: AUClast in Plasmodium berghei infected mouse at 50 mg/kg treated with four once daily doses

[18] = system: Plasmodium berghei; assay: Antiplasmodial activity against Plasmodium berghei infected in mouse assessed as increase in mean survival days at 100 mg/kg treated with four once daily doses; format: functional
[19] = Cmax in Plasmodium berghei infected mouse at 100 mg/kg treated with four once daily doses; format: ADME, organism-based; parameters: dose 100 mg/kg; settings: in vivo
[20] = in vivo; settings: mouse, 30 mg/kg; remark: listed apart in the source
Description: Half life in Plasmodium berghei infected mouse at 30 mg/kg treated with four once daily doses

[21] = system: Plasmodium berghei; assay: animal or person; settings: in Mus musculus, read-out: INH
Description: Antiplasmodial activity against Plasmodium berghei infected in mouse assessed as reduction in parasitemia at 30 mg/kg treated with four once daily doses

[22] = in vivo; settings: mouse, 50 mg/kg
Description: Half life in Plasmodium berghei infected mouse at 50 mg/kg treated with four once daily doses

[23] = system: Plasmodium berghei; assay: animal or person; settings: in Mus musculus, read-out: INH; remark: listed apart in the source
Description: Antiplasmodial activity against Plasmodium berghei infected in mouse assessed as reduction in parasitemia at 50 mg/kg treated with four once daily doses

[24] = system: Plasmodium berghei; assay: Antiplasmodial activity against Plasmodium berghei infected in mouse assessed as reduction in parasitemia at 100 mg/kg treated with four once daily doses; format: functional
[25] = AUClast in Plasmodium berghei infected mouse at 100 mg/kg treated with four once daily doses; format: ADME, organism-based; parameters: time 0 - last, dose 100 mg/kg; settings: plasma
[26] = in vivo; settings: mouse, plasma, 30 mg/kg
Description: AUClast in Plasmodium berghei infected mouse at 30 mg/kg treated with four once daily doses

[27] = in vivo; settings: mouse, 50 mg/kg; remark: listed apart in the source
[28] = system: Plasmodium berghei; settings: dose 30 mg/kg
Description: Antiplasmodial activity against Plasmodium berghei infected in mouse assessed as increase in mean survival days at 30 mg/kg treated with four once daily doses

[29] = in vivo; settings: rat, iv, 1 mg/kg
Description: Volume of distribution at steady state in rat at 1 mg/kg, iv

[30] = in vivo; settings: rat, plasma, iv, 1 mg/kg
[31] = in vivo; settings: rat, po, 5 mg/kg
[32] = in vivo; settings: rat, po, 5 mg/kg; remark: listed apart in the source
Description: Half life in rat at 5 mg/kg, po

[33] = in vivo; settings: rat, po, 5 mg/kg; remark: listed apart in the source
[34] = in vivo; settings: rat, iv, 1 mg/kg; remark: listed apart in the source
Description: Clearance in rat at 1 mg/kg, iv

[35] = in vivo; settings: rat, iv, 1 mg/kg; remark: listed apart in the source
Description: Half life in rat at 1 mg/kg, iv

Chain of Voltage-gated inwardly rectifying potassium channel KCNH2 (Q12809 whole entry): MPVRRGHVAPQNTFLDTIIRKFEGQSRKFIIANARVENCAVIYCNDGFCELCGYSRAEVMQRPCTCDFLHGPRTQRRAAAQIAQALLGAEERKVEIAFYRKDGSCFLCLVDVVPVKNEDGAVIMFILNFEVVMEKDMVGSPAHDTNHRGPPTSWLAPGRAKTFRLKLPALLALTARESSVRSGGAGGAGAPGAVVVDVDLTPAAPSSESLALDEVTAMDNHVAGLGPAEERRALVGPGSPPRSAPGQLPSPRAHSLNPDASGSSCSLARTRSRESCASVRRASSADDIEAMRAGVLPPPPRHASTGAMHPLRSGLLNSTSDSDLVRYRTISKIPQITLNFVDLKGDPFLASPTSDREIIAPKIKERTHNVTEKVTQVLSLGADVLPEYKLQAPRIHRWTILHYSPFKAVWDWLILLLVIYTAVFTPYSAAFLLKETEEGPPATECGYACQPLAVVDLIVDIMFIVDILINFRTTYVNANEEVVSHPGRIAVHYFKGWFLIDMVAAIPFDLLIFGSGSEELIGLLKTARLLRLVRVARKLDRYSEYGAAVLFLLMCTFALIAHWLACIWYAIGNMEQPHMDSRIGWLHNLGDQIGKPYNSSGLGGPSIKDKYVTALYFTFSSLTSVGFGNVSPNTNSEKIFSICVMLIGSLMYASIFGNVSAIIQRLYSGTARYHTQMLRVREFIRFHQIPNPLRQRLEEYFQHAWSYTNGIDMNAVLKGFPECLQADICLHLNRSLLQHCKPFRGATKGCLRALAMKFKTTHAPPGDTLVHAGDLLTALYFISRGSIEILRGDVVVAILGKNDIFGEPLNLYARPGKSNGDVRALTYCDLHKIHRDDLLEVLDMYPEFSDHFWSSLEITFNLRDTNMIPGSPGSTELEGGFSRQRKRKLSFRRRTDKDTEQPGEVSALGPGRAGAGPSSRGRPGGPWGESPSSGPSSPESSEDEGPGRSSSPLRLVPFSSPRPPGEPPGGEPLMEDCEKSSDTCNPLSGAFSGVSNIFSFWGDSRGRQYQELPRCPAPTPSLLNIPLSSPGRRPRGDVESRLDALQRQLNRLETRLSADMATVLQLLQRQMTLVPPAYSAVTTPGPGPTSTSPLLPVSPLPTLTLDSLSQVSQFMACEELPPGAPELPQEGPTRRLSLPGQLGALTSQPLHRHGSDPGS

SMILES: CN1CCN(c2ccc3nc(Nc4ccc(Br)cc4)[nH]c3c2)CC1
IC50 [1]: 210 nM
IC50 [2]: 390 nM
selectivity ratio [3]: > 1190

SMILES: CN1CCN(c2ccc3nc(Nc4ccccn4)[nH]c3c2)CC1
IC50 [1]: > 500 nM
IC50 [2]: > 500 nM
selectivity ratio [3]: > 86

SMILES: Cc1ccc(Nc2nc3ccc(N4CCN(C)CC4)cc3[nH]2)nc1
hepatocyte CLint [4]: 19.5 µL/min/1e6 cells
solubility [5]: 1170 µM (≈ 377 µg/mL)
fraction unbound [6]: 0.183
IC50 [7]: 86.2 nM
IC50 [8]: 437 nM
IC50 [1]: 130 nM
microsomal CLint [9]: 4.8 µL/min/mg
logD [10]: 2.2
IC50 [2]: 270 nM
selectivity ratio [3]: > 385
IC50 [11]: 307 nM
IC50 [12]: 201 nM
IC50 [13]: 12.7 µM

hepatocyte CLint [4]: 7.5 µL/min/1e6 cells
solubility [5]: > 1000 µM
fraction unbound [6]: 0.275
IC50 [1]: 93 nM
microsomal CLint [9]: < 4 µL/min/mg
logD [10]: 3.2
IC50 [2]: 166 nM
SMILES: CN1CCN(Cc2ccc3nc(Nc4ccc(C(F)(F)F)cn4)[nH]c3c2)CC1

IC50 [1]: 130 nM
IC50 [2]: 210 nM
SMILES: OCCN1CCN(c2ccc3nc(Nc4ccc(C(F)(F)F)cn4)[nH]c3c2)CC1
selectivity ratio [3]: > 1110

SMILES: CN1CCN(c2ccc3nc(Nc4ccc(C(F)(F)F)cn4)[nH]c3c2)CC1
MSD [14]: 15 days
Cmax [15]: 3.3 µM
half-life [16]: 294 min
AUC(0-t) [17]: 33.7 µM·h
IC50 [1]: 82 nM
MSD [18]: 24 days
IC50 [2]: 120 nM
selectivity ratio [3]: 890
Cmax [19]: 6.1 µM
half-life [20]: 222 min
inhibition in vivo at 30 mg/kg [21]: 81.3%
half-life [22]: 324 min
inhibition in vivo at 50 mg/kg [23]: 99.9%
inhibition in vivo at 100 mg/kg [24]: 99.9%
AUC(0-t) [25]: 41.6 µM·h
AUC(0-t) [26]: 19.2 µM·h
Cmax [27]: 5 µM
MSD [28]: 10 days

IC50 [1]: > 500 nM
IC50 [2]: > 500 nM
SMILES: CN1CCN(c2ccc3nc(Nc4ccc(C(F)(F)F)nc4)[nH]c3c2)CC1
selectivity ratio [3]: > 500

IC50 [1]: 29 nM
IC50 [2]: 54 nM
SMILES: CN1CCN(c2cc3[nH]c(Nc4ccc(C(F)(F)F)cn4)nc3cn2)CC1
selectivity ratio [3]: 1030

hepatocyte CLint [4]: 9 µL/min/1e6 cells
solubility [5]: > 1000 µM
fraction unbound [6]: 0.301
IC50 [1]: 110 nM
microsomal CLint [9]: < 4 µL/min/mg
logD [10]: 3
IC50 [2]: 160 nM
SMILES: CN1CCN(c2cc(Cl)c3nc(Nc4ccc(Br)cn4)[nH]c3c2)CC1

IC50 [1]: > 500 nM
IC50 [2]: > 500 nM
SMILES: CN1CCN(c2nc3[nH]c(Nc4ccc(Br)cn4)nc3cc2F)CC1
selectivity ratio [3]: > 100

SMILES: Brc1ccc(Nc2nc3ccc(N4CCNCC4)cc3[nH]2)nc1
MSD [14]: 11 days
AUC(0-t) [17]: 202 µM·h
IC50 [1]: 39 nM
IC50 [2]: 278 nM
selectivity ratio [3]: 961
half-life [22]: 270 min
inhibition in vivo at 50 mg/kg [23]: 99.9%
Cmax [27]: 25.5 µM

IC50 [1]: > 500 nM
IC50 [2]: > 500 nM
SMILES: Brc1ccc(Nc2nc3ccc(N4CCOCC4)cc3[nH]2)nc1
selectivity ratio [3]: > 100

SMILES: CN1CCC(c2ccc3nc(Nc4ccc(C(F)(F)F)cn4)[nH]c3c2)CC1
MSD [14]: 30 days
Vd [29]: 16.9 L/kg
AUC [30]: 6 µM·h
hepatocyte CLint [4]: 4.7 µL/min/1e6 cells
solubility [5]: 121 µM (≈ 45.4 µg/mL)
fraction unbound [6]: 0.134
bioavailability [31]: 79%
Cmax [15]: 5.2 µM
AUC(0-t) [17]: 131 µM·h
IC50 [1]: 36 nM
half-life [32]: 1150 min
Cmax [33]: 500 nM
microsomal CLint [9]: < 4 µL/min/mg
clearance [34]: 14.9 mL/min/kg
logD [10]: 3
half-life [35]: 894 min
IC50 [2]: 59 nM
half-life [20]: 558 min
inhibition in vivo at 30 mg/kg [21]: 98.9%
half-life [22]: 1110 min
inhibition in vivo at 50 mg/kg [23]: 99.8%
AUC(0-t) [26]: 54 µM·h
Cmax [27]: 8.8 µM
MSD [28]: 25 days

IC50 [1]: 53 nM
IC50 [2]: 85 nM
SMILES: CN1CCC(c2ccc3nc(Nc4ccc(C(F)(F)F)cn4)[nH]c3c2)C1 (centres undefined)

IC50 [1]: 56 nM
IC50 [2]: 119 nM
SMILES: FC(F)(F)c1ccc(Nc2nc3ccc(N4CCN5CCCC5C4)cc3[nH]2)nc1 (centres undefined)
selectivity ratio [3]: 357

SMILES: CN1C2CCC1CC(c1ccc3nc(Nc4ccc(C(F)(F)F)cn4)[nH]c3c1)C2 (centres undefined)
IC50 [1]: 94 nM
IC50 [2]: 200 nM
selectivity ratio [3]: 308

IC50 [1]: 450 nM
IC50 [2]: > 500 nM
SMILES: CN1CCN(C(=O)c2ccc3nc(Nc4ccc(Br)cn4)[nH]c3c2)CC1
selectivity ratio [3]: 548

SMILES: Cc1nc(Nc2nc3ccc(N4CCN(C)CC4)cc3[nH]2)ccc1F
IC50 [8]: 106 nM
IC50 [1]: 48 nM
IC50 [2]: 110 nM
selectivity ratio [3]: > 1050
IC50 [11]: 98.8 nM

IC50 [1]: 44 nM
IC50 [2]: 110 nM
SMILES: Cc1nc(Nc2nc3cnc(N4CCN(C)CC4)cc3[nH]2)ccc1Cl
selectivity ratio [3]: 500

IC50 [1]: 80 nM
IC50 [2]: 130 nM
SMILES: CN1CCC(c2ccc3nc(Nc4ncc(C(F)(F)F)cc4Cl)[nH]c3c2)CC1

hepatocyte CLint [4]: 11.3 µL/min/1e6 cells
solubility [5]: 5.6 µM (≈ 2.14 µg/mL)
fraction unbound [6]: 0.051
IC50 [1]: 17 nM
microsomal CLint [9]: 21.8 µL/min/mg
logD [10]: 3.9
IC50 [2]: 26 nM
SMILES: Cc1nc(Nc2nc3cnc(N4CCN(C)CC4)cc3[nH]2)cc(C2CC2)c1F

IC50 [1]: 13 nM
IC50 [2]: 30 nM
SMILES: Cc1nc(Nc2nc3ccc(C4CCN(C)CC4)cc3[nH]2)cc(C2CC2)c1F
selectivity ratio [3]: 692

SMILES: C[C@@H]1CC[C@H]2[C@@H](C)C(=O)O[C@@H]3O[C@@]4(C)CC[C@@H]1[C@]32OO4 [ARTEMISININ]
IC50 [7]: 16.6 nM
IC50 [8]: 6.5 nM
IC50 [1]: 7.1 nM
IC50 [11]: 1.3 nM
IC50 [12]: 10.3 nM

SMILES: O=C1C(O)=C([C@H]2CC[C@H](c3ccc(Cl)cc3)CC2)C(=O)c2ccccc21 [ATOVAQUONE]
IC50 [7]: > 2000 nM
IC50 [2]: 2.3 nM
IC50 [11]: 2.3 nM
IC50 [12]: 2 nM

SMILES: CCc1nc(N)nc(N)c1-c1ccc(Cl)cc1 [PYRIMETHAMINE]
IC50 [7]: 10.9 nM
